Measured values taken from patent US20240158392A1 (Janssen Biotech, Inc., priority 2021, published 2024).

biological target: SIK2 (Homo sapiens, UniProt Q9H0K1); test: SIK2 Enzymatic Assay Version 1 (ADP Glo); type: biochemical; details: enzyme 0.6 nM, 160 μM ATP and 140 μM HDAC5tide (each 2× final concentration); 30 minutes pre-incubation, 4 hours; ADPGlo luminescence; read-out: SIK2 ADP Glo IC50 (μM) (Test Example 1)
Protocol: All steps were performed at room temperature. Compounds were pre-plated onto an assay plate using an Echo acoustic dispenser (Labcyte, E550 or E555) at 20 nL per well. Enzyme prepared in Assay Buffer at 0.6 nM (2× final concentration) was added at 2 μL per well using the Multidrop Combi (Thermo Fisher—used for all additions in this assay) to the assay plate, spun for 1 min at 800-850 rpm (Allegra 6KR Beckman Coulter centrifuge), and incubated with compound for 30 minutes.
One column of wells was dedicated to a no-peptide negative control (containing only ATP). ADPGlo Reagent (prepared and aliquoted as per manufacturer instructions) was then added at 2 μL per well, spun and incubated for 40 min. ADPGlo Detection (prepared and aliquoted as per manufacturer instructions) was added at 2 μL per well to the assay plate, which was spun and incubated for at least 30 min. The plate was then read on the Pherastar (BMG Labtech) using a luminescence read. Gain was set by the 0.1 mM concentration of ADP wells in the ADP/ATP standard curve plate generated as per manufacturer instructions.

SIK2, sequence (Q9H0K1 whole entry, species assumed): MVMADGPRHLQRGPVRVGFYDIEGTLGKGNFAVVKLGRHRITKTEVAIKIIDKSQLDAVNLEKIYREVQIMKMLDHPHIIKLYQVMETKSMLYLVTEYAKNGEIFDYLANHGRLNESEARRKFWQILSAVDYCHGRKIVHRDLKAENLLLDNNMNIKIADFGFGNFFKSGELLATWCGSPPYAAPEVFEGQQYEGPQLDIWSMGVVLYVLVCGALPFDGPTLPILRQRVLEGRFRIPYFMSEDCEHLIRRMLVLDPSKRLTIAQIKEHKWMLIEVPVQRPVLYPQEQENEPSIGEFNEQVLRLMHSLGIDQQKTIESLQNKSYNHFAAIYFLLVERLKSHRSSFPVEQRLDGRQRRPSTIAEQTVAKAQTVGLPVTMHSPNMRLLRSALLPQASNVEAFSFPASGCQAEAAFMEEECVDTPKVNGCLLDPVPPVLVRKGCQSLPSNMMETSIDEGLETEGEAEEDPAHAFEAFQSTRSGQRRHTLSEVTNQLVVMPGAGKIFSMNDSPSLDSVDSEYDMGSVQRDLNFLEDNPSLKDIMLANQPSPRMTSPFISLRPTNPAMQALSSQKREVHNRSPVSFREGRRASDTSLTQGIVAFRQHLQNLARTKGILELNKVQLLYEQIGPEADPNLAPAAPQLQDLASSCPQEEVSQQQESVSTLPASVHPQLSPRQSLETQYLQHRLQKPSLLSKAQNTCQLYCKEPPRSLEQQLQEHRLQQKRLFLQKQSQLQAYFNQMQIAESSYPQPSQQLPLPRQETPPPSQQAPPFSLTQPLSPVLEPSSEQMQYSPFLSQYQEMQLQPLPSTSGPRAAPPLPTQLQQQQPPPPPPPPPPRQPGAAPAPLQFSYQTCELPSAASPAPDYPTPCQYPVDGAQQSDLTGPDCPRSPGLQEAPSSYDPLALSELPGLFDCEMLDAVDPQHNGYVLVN

SMILES | IC50 [µM]
N#Cc1cc(-c2ccn3nc(NC(=O)C4CC4)cc3c2)c(OCc2ccnc(C(F)(F)F)c2)cn1 [Example 62, N-[5-[2-cyano-5-[[2-(trifluoromethyl)-4-pyridyl]methoxy]-4-pyridyl]pyrazolo[1,5-a]pyridin-2-yl]cyclopropanecarboxamide] | > 5
CN1CC[C@H](CNc2cnc(C#N)cc2-c2ccn3nc(NC(=O)C4CC4)cc3c2)C1 [Example 71, N-[5-[2-cyano-5-[[(3R)-1-methylpyrrolidin-3-yl]methylamino]-4-pyridyl]pyrazolo[1,5-a]pyridin-2-yl]cyclopropanecarboxamide] | 0.0577
CN(C)CC1CN(c2cnc(C#N)cc2-c2ccn3nc(NC(=O)C4CC4)cc3c2)C1 [Example 72, N-[5-[2-cyano-5-[3-(dimethylaminomethyl)azetidin-1-yl]-4-pyridyl]pyrazolo[1,5-a]pyridin-2-yl]cyclopropanecarboxamide] | 0.15
CNC(=O)C1CN(c2cnc(C#N)cc2-c2ccn3nc(NC(=O)C4CC4)cc3c2)C1 [Example 73, 1-[6-cyano-4-[2-(cyclopropanecarbonylamino)pyrazolo[1,5-a]pyridin-5-yl]-3-pyridyl]-N-methyl-azetidine-3-carboxamide] | 0.0846
N#Cc1cc(-c2ccn3nc(NC(=O)C4CC4)cc3c2)c(N2CC(O)(C(F)(F)F)C2)cn1 [Example 75, N-[5-[2-cyano-5-[3-hydroxy-3-(trifluoromethyl)azetidin-1-yl]-4-pyridyl]pyrazolo[1,5-a]pyridin-2-yl]cyclopropanecarboxamide] | 0.398
Cn1ccc(Nc2cnc(C#N)cc2-c2ccn3nc(NC(=O)C4CC4)cc3c2)n1 [Example 77, N-[5-[2-cyano-5-[(1-methylpyrazol-3-yl)amino]-4-pyridyl]pyrazolo[1,5-a]pyridin-2-yl]cyclopropanecarboxamide] | 0.242
Cn1cc(Nc2cnc(C#N)cc2-c2ccn3nc(NC(=O)C4CC4)cc3c2)cn1 [Example 79, N-[5-[2-cyano-5-[(1-methylpyrazol-4-yl)amino]-4-pyridyl]pyrazolo[1,5-a]pyridin-2-yl]cyclopropanecarboxamide] | 0.389
N#Cc1cc(-c2ccn3nc(NC(=O)C4CC4)cc3c2)c(NC2CC2)cn1 [Example 80, N-[5-[2-cyano-5-(cyclopropylamino)-4-pyridyl]pyrazolo[1,5-a]pyridin-2-yl]cyclopropanecarboxamide] | 0.0703
CN1CC2(C1)CN(c1cnc(C#N)cc1-c1ccn3nc(NC(=O)C4CC4)cc3c1)C2 [Example 91, N-[5-[2-cyano-5-(2-methyl-2,6-diazaspiro[3.3]heptan-6-yl)-4-pyridyl]pyrazolo[1,5-a]pyridin-2-yl]cyclopropanecarboxamide] | 0.0688
Cc1cc(-c2ccn3nc(NC(=O)C4CC4)cc3c2)c(O[C@@H]2C[C@H]3CC[C@@H](C2)N3C)cn1 [Example 140, N-(5-(2-methyl-5-(((1R,3r,5S)-8-methyl-8-azabicyclo[3.2.1]octan-3-yl)oxy)pyridin-4-yl)pyrazolo[1,5-a]pyridin-2-yl)cyclopropanecarboxamide] | 0.0195
Cc1cc(-c2ccn3nc(NC(=O)C4CC4)cc3c2)c(OC2CN(C(C)C)C2)cn1 [Example 142, N-[5-[5-(1-isopropylazetidin-3-yl)oxy-2-methyl-4-pyridyl]pyrazolo[1,5-a]pyridin-2-yl]cyclopropanecarboxamide] | 0.0448
CO[C@H]1C[C@H](Oc2cnc(C)cc2-c2ccn3nc(NC(=O)C4CC4)cc3c2)C1 [Example 146, trans-N-[5-[5-(3-methoxycyclobutoxy)-2-methyl-4-pyridyl]pyrazolo[1,5-a]pyridin-2-yl]cyclopropanecarboxamide] | 0.0352
CO[C@H]1C[C@@H](Oc2cnc(C)cc2-c2ccn3nc(NC(=O)C4CC4)cc3c2)C1 [Example 147, cis-N-[5-[5-(3-methoxycyclobutoxy)-2-methyl-4-pyridyl]pyrazolo[1,5-a]pyridin-2-yl]cyclopropanecarboxamide] | 0.0124
Cc1cc(-c2ccn3nc(NC(=O)C4CC4)cc3c2)c(OC[C@@H](N)C(C)(C)C)cn1 [Example 149, N-[5-[5-[(2S)-2-amino-3,3-dimethyl-butoxy]-2-methyl-4-pyridyl]pyrazolo[1,5-a]pyridin-2-yl]cyclopropanecarboxamide] | 0.0122
COc1ccccc1-c1ccn2nc(NC(=O)C3CC3)cc2c1 [Example 742, N-[5-(2-methoxyphenyl)pyrazolo[1,5-a]pyridin-2-yl]cyclopropanecarboxamide] | 0.417
COc1ccc(C)cc1-c1ccn2nc(NC(=O)C3CC3)cc2c1 [Example 744, N-[5-(2-methoxy-5-methyl-phenyl)pyrazolo[1,5-a]pyridin-2-yl]cyclopropanecarboxamide] | 0.289
COc1cc(C)ccc1-c1ccn2nc(NC(=O)C3CC3)cc2c1 [Example 745, N-[5-(2-methoxy-4-methyl-phenyl)pyrazolo[1,5-a]pyridin-2-yl]cyclopropanecarboxamide] | 3.52
COc1cccc(C)c1-c1ccn2nc(NC(=O)C3CC3)cc2c1 [Example 746, N-[5-(2-methoxy-6-methyl-phenyl)pyrazolo[1,5-a]pyridin-2-yl]cyclopropanecarboxamide] | 0.271

Second part, the molecule after the results:

IC50 [µM] | SMILES
0.00922 | CN1C[C@@H](Oc2cnc(C#N)cc2-c2ccn3nc(NC(=O)C4CC4)cc3c2)C[C@@H](C(F)(F)F)C1 [Example 28, N-[5-[2-cyano-5-[[(3S,5R)-1-methyl-5-(trifluoromethyl)-3-piperidyl]oxy]-4-pyridyl]pyrazolo[1,5-a]pyridin-2-yl]cyclopropanecarboxamide]
0.0227 | CC(C)(C)OC(=O)N1CC2(CC(Oc3cnc(C#N)cc3-c3ccn4nc(NC(=O)C5CC5)cc4c3)C2)C1 [Example 34, tert-butyl 2-[[6-cyano-4-[2-(cyclopropanecarbonylamino)pyrazolo[1,5-a]pyridin-5-yl]-3-pyridyl]oxy]-6-azaspiro[3.3]heptane-6-carboxylate]
0.0096 | CC(C)(C)OC(=O)COc1cnc(C#N)cc1-c1ccn2nc(NC(=O)C3CC3)cc2c1 [Example 55, tert-butyl 2-[[6-Cyano-4-[2-(cyclopropanecarbonylamino)pyrazolo[1,5-a]pyridin-5-yl]-3-pyridyl]oxy]acetate]
0.0103 | N#Cc1cc(-c2ccn3nc(NC(=O)C4CC4)cc3c2)c(OCc2ccc(C(F)(F)F)nc2)cn1 [Example 61, N-[5-[2-cyano-5-[[6-(trifluoromethyl)-3-pyridyl]methoxy]-4-pyridyl]pyrazolo[1,5-a]pyridin-2-yl]cyclopropanecarboxamide]
0.00871 | CN1CCC[C@H](Oc2cnc(C#N)cc2-c2ccn3nc(NC(=O)C4CC4)cc3c2)C1 [Example 65, N-[5-[2-cyano-5-[[(3S)-1-methyl-3-piperidyl]oxy]-4-pyridyl]pyrazolo[1,5-a]pyridin-2-yl]cyclopropanecarboxamide]
0.00654 | CC(C)(O)C1CN(c2cnc(C#N)cc2-c2ccn3nc(NC(=O)C4CC4)cc3c2)C1 [Example 74, N-[5-[2-cyano-5-[3-(1-hydroxy-1-methyl-ethyl)azetidin-1-yl]-4-pyridyl]pyrazolo[1,5-a]pyridin-2-yl]cyclopropanecarboxamide]
0.0255 | N#Cc1cc(-c2ccn3nc(NC(=O)C4CC4)cc3c2)c(NCC2CC2)cn1 [Example 76, N-[5-[2-cyano-5-(cyclopropylmethylamino)-4-pyridyl]pyrazolo[1,5-a]pyridin-2-yl]cyclopropanecarboxamide]
0.0143 | N#Cc1cc(-c2ccn3nc(NC(=O)C4CC4)cc3c2)c(NC2CCCC2)cn1 [Example 78, N-[5-[2-cyano-5-(cyclopentylamino)-4-pyridyl]pyrazolo[1,5-a]pyridin-2-yl]cyclopropanecarboxamide]
0.014 | N#Cc1cc(-c2ccn3nc(NC(=O)C4CC4)cc3c2)c(O[C@H]2CNCCOC2)cn1 [Example 84, N-[5-[2-cyano-5-[[(6S)-1,4-oxazepan-6-yl]oxy]-4-pyridyl]pyrazolo[1,5-a]pyridin-2-yl]cyclopropanecarboxamide]
0.0134 | CN1CC2CN(c3cnc(C#N)cc3-c3ccn4nc(NC(=O)C5CC5)cc4c3)CC2C1 (centres unmarked) [Example 90, N-[5-[2-cyano-5-(2-methyl-1,3,3a,4,6,6a-hexahydropyrrolo[3,4-c]pyrrol-5-yl)-4-pyridyl]pyrazolo[1,5-a]pyridin-2-yl]cyclopropanecarboxamide]
0.0138 | CCN1CC(Oc2cnc(C)cc2-c2ccn3nc(NC(=O)C4CC4)cc3c2)C1 [Example 141, N-[5-[5-(1-ethylazetidin-3-yl)oxy-2-methyl-4-pyridyl]pyrazolo[1,5-a]pyridin-2-yl]cyclopropanecarboxamide]
0.0117 | Cc1cc(-c2ccn3nc(Nc4ccc(C(=O)NC5CC5)c(F)c4)cc3c2)c(OCC(C)(C)O)cn1 [Example 615, N-cyclopropyl-2-fluoro-4-[[5-[5-(2-hydroxy-2-methyl-propoxy)-2-methyl-4-pyridyl]pyrazolo[1,5-a]pyridin-2-yl]amino]benzamide]
0.0217 | CCOc1ccccc1-c1ccn2nc(NC(=O)C3CC3)cc2c1 [Example 743, N-[5-(2-ethoxyphenyl)pyrazolo[1,5-a]pyridin-2-yl]cyclopropanecarboxamide]
0.0312 | COc1c(C)cccc1-c1ccn2nc(NC(=O)C3CC3)cc2c1 [Example 747, N-[5-(2-methoxy-3-methyl-phenyl)pyrazolo[1,5-a]pyridin-2-yl]cyclopropanecarboxamide]
